From patent publication US10287328B2, “Treatment of diabetes, toll-like receptor 4 modulators and methods for using the same” (KeMyth Biotech Co., Ltd., priority 2016, dated 2019)

How the values were obtained:
[1] = Blood glucose level in HFD-induced, STZ-injected type 2 diabetic rats; type: in vivo, Sprague-Dawley rats; details: STZ-injected HFD-fed rats, 2 mg/kg/3 days i.p. for 30 days, compared to STZ+vehicle
Procedure: The Sprague-Dawley rats were allocated to two dietary regimens by feeding either normal or HFD ad libitum, for the initial period of 2 weeks. After 2 weeks of dietary manipulation, the group of rats fed HFD were injected intraperitoneally (i.p.) with a low dose of STZ (35 mg/kg b.w.), while the respective control rats were given vehicle citrate buffer (pH 4.5) in a dose volume of 1 mL/kg, i.p. Seven days after STZ injection, rats were screened for blood glucose levels. Overnight fasted (10-12 hours) animals were given glucose (3 g/kg b.w.) by gastric intubation. After 2 hours of oral administration, blood samples were taken from lateral tail vein, left to coagulate and centrifuged; then serum glucose concentration was measured. Rats having serum glucose ≥200 mg/dL after 2 hours of glucose intake were considered diabetic and selected for further pharmacological studies. The rats were allowed to continue to feed on their respective diets until the end of the study (16). […]
Blood Glucose Test Strips and Blood Glucose Monitoring System were used to determine whole blood glucose levels on a drop of tail blood collected between 10 am and midday. Glucose concentration was determined colorimetrically using a glucose oxidase/peroxidase reagent kit. Samples were incubated with 100 μl of assay reagent at 37° C. for 30 min and measured at 540 nm. […]

[2] = system: sICAM-1, sVCAM-1, sE-selectin; assay: Serum sICAM-1, sVCAM-1 and sE-selectin (ELISA) in HFD-induced type 2 diabetic rats; type: in vivo, Sprague-Dawley rats; details: STZ-injected HFD-fed rats, compared to STZ+vehicle
Procedure: The Sprague-Dawley rats were allocated to two dietary regimens by feeding either normal or HFD ad libitum, for the initial period of 2 weeks. After 2 weeks of dietary manipulation, the group of rats fed HFD were injected intraperitoneally (i.p.) with a low dose of STZ (35 mg/kg b.w.), while the respective control rats were given vehicle citrate buffer (pH 4.5) in a dose volume of 1 mL/kg, i.p. Seven days after STZ injection, rats were screened for blood glucose levels. Overnight fasted (10-12 hours) animals were given glucose (3 g/kg b.w.) by gastric intubation. After 2 hours of oral administration, blood samples were taken from lateral tail vein, left to coagulate and centrifuged; then serum glucose concentration was measured. Rats having serum glucose ≥200 mg/dL after 2 hours of glucose intake were considered diabetic and selected for further pharmacological studies. The rats were allowed to continue to feed on their respective diets until the end of the study (16).
The experimental animals were divided into three groups, each group comprising six rats designated as follows: (1) group 1 served as control rats (non-DM control); (2) group 2 served as diabetic control rats (STZ+vehicle); and (3) group 3 served as diabetic treatment rats administered with C70PLY4 (2 mg/kg/3 days) in aqueous suspension i.p. for 30 days (STZ+C70PLY4). By the end of the experiment, animals were sacrificed and blood samples, muscle and liver were obtained.
The levels of insulin, sICAM-1, sVCAM-1, and E-selectin in serum were determined by using sandwich ELISA (R&D) according to manufacturer's protocols.

[3] = system: HUVECs; type: cell-based, human
Procedure: Cell viability was detected by a methanethiosulfonate (MTS) assay. In brief, 2×10^4 HUVECs were seeded to a 48-well plates in 100 μl endothelial cell medium (ECM, ScienCell Research Laboratory, Cat. 1001, USA) per well and incubated for 24 hrs. The media was removed and the cells were then incubated with media having 2% fetal bovine serum (FBS), in the absence or presence of various peptides, such as PLY, PLY123, PLY4, C70PLY4 or N35PLY4, at a concentration of 1, 10 or 100 nM. After incubation for 18 hours, the media was removed and 20 μl MTS reagents (20%) were added to each well in the final volume of 100 μl and placed in incubator for 1 hours. The optical density was measured at 490 nm using a plate reader.

[4] = system: caspase-3 activity in HUVECs; type: cell-based, human; details: compared to control cells
Procedure: Cell apoptosis was detected by using commercial terminal deoxynucleotidyl transferase-dUTP nick end labeling (TUNEL) and caspase-3 activity kits, i.e., Apo-BrdU in Situ DNA Fragmentation Assay Kit (BioVision) and NucView™ 488 Caspase-3 Enzyme Substrate (Biotium). In brief, after incubation with M199 media in the presence or absence of […] various PLY peptides, at 37° C., 5% CO2 for 1 hour, HUVECs were washed with PBS and fixed with fixation buffer on ice for 20 min. Cells were then soaked in 70% alcohol for 1 hr. After 2 times of wash by washing buffer, cells were incubated in DNA labeling solution for 60 min at 37° C. Cells were then treated with rinse buffer and incubated with antibody buffer for 30 min at room temperature. The cell nuclei were stained with propidium iodide for 30 min. Samples were observed by fluorescent microscopeand photographed charge-coupled device (CCD) camera.
As to caspase-3 activity assay, after variant peptide treatments, HUVECs were washed by PBS. Cells were then reacted with Caspase-3 Enzyme Substrate 1 mM for 30 min at room temperature. Cells were then observed by fluorescent microscopeand photographed CCD camera.

In the case of “QDLTAHFTTSIPLKGNVRNLSVKIRECTGLAWEWWRTVYEKTDLPLVRKRTISIWGTTLYPQVEDKVEND [C70PLY4]”, the blood glucose levels [1] is reported as “decreased blood glucose”, the “serum sE-selectin level” value [2] is reported as “decreased” and the “serum sICAM-1 level” value [2] is reported as “decreased sICAM-1”. For the same sequence, the “serum sVCAM-1 level” value [2] was “decreased”, the “toxicity to HUVECs (FIG. 15)” value ([3]; MTS assay, 1, 10 or 100 nM, statement for high concentration (100 nM)) was “no toxic effects” and the “toxic effects to HUVECs at 100 nM or below” value ([3]; MTS assays, 100 nM or below, data not shown) was “no toxic effects”. The “apoptotic potential, caspase-3 activity assay” value [4] was “no apoptotic potential”.
